The text below walks through data of publication PMC7051184, “C9orf72 arginine-rich dipeptide repeat proteins disrupt karyopherin-mediated nuclear import” (eLife, 2020).

Where a SMILES comes first, the peptide text is derived from it.

Assay [1] addresses T1, importin β-mediated nuclear import of Rango (Homo sapiens, UniProt Q14974). The experiment in a line: Fractionated Rango transport assay (aggregates present or supernatant only), HeLa. The format is cell-based. How it is done: A single cell-derived clone of HeLa cells (ATCC, Manassas, VA; mycoplasma negative and validated by STR profiling) were maintained in OptiMEM (Gibco/ThermoFisher) with 4% FBS and plated on uncoated optical glass-bottom 96 well plates, at appropriate densities to reach 70–90% confluence on the day of the transport assay. To permeabilize, cells were rinsed for 2 min in ice-cold PBS, and permeabilized on ice for 10 min in 15–30 µg/mL digitonin (Calbiochem, San Diego, CA) in permeabilization buffer (PRB, 20 mM HEPES, 110 mM KOAc, 5 mM Mg(OAc)2, 0.5 mM EGTA, 250 mM sucrose, pH 7.5, with protease inhibitor cocktail). Following permeabilization, cells were placed on ice and rinsed 3 × 5 min in transport buffer (TRB, 20 mM HEPES, 110 mM KOAc, 2 mM Mg(OAc)2, 5 mM NaOAc, 0.5 mM EGTA, 250 mM sucrose, pH 7.3, with protease inhibitor cocktail). The optimal digitonin concentration varied by cell density and passage number, and was optimized prior to each set of assays for the ability to permeabilize the majority of plasma membranes while maintaining nuclear exclusion of a 70 kD fluorescent dextran (ThermoFisher).
Reaction mixes consisting of 2.5 mg/ml lysate, ER, fluorescent cargo (200 nM Rango and YFP-M9-CFP, 500 nM GST-GFP-NLS), Hoechst, DPRs, RNA, or inhibitors (100 µM importazole (IPZ, Millipore Sigma); 0.8 mg/mL wheat germ agglutinin (WGA, Millipore Sigma) were assembled on ice during cell permeabilization. DPRs or inhibitors were allowed to equilibrate in cell lysate for at least 30 min prior to initiation of transport. Every plate included: (1) Cargo alone: fluorescent cargo, but no ER or lysate, (2) Untreated controls: fluorescent cargo, ER, and lysate, and (3) Inhibitor: fluorescent cargo, ER, lysate, and IPZ (Rango and GST-GFP-NLS reactions) or WGA (YFP-M9-CFP). Preassembled transport reactions were then transferred onto permeabilized cells via multichannel pipette, and allowed to proceed at room temperature for 2 hr (Rango, YFP-M9-CFP) or 4 hr (GST-GFP-NLS). Cells were fixed in 4% paraformaldehyde/PBS, rinsed 2x with PBS, and transferred to 50% glycerol/PBS for immediate imaging.
For a subset of neuron transport assays, transport was monitored live via time lapse imaging every 5 min for 30 min. […]
Multiple non-overlapping fields per well (4 for time-lapse imaging, 9-16 for fixed imaging), were captured at 40x on an ImageXpress Micro XLS high-content microscope (Molecular Devices, San Jose, CA), and the ratio of nuclear to cytoplasmic fluorescence intensity was calculated using the MetaXpress automated translocation-enhanced module. […] Resulting N/C ratios were expressed as % untreated, to permit comparisons across biological replicates.

Assay [2] in a line: Bead halo assay, bare neutravidin beads (non-specific control). Conditions: AF488-labeled, 200 nM, binding buffer. As to the method:
The bead halo assay was carried out as described with minor modifications ([Patel and Rexach, 2008]), using […] polystyrene beads coated with neutravidin (for biotinylated proteins) or glutathione (for GST-fusion proteins) (Spherotech, Lake Forest, IL). Beads were coated overnight at 4°C at saturating concentrations per manufacturers’ instructions and rinsed 2x in binding buffer (20 mM HEPES [pH 7.4], 150 mM KOAc, 2 mM Mg(OAc)2, 1 mM DTT, 0.1% Tween-20). Immediately prior to the assay, fluorescent bait proteins and beads were combined with 4x assay buffer (40 mM EDTA, 40 mg/ml BSA, 500 mM NaCl, and 0.2% Tween) to a total of 40 µL per well, in optical glass-bottom 96-well plates (Cellvis, Mountain View, CA). Reactions were allowed to equilibrate at room temperature for a minimum of 30 min prior to imaging at 100x on an LSM800 confocal microscope (Zeiss, Oberkochen, Germany). Intensity profiles comparing the maximum rim intensity to the background were plotted in ImageJ (NIH) by an investigator blinded to experimental conditions.

In the next assay the test system is RCC1. Nature of the assay: DPR aggregation assay and western blot, RCC1 (negative control). The format is biochemical, human. Conditions: 100 µM 10mer in 2.5 mg/ml HEK lysate, normalized to untreated HEK. As to the method: (§1) Supernatant and pellet fractions (for all 5 DPRs, and control/buffer only) were prepared as in the nuclear transport assays, by adding 100 µM 10mers to 2.5 mg/ml HEK lysate in 100 µL TRB. Supernatants were boiled in Laemmli (BioRad) for 5 min. Pellets were boiled for 15 min followed by sonication in order to fully disperse aggregates for SDS-PAGE. Equal volumes of supernatant and pellet fractions were run on 4–12% Bolt Bis-Tris Plus gels (ThermoFisher), transferred to nitrocellulose membrane using an iBlot2 dry blotting system (ThermoFisher). Protein loading was analyzed by BLOT-Faststain (G-biosciences, St. Louis, MO), according to the manufacterers’ instructions. For immunodetection, membranes were blocked with 5% non-fat milk in TBST and probed by sequential incubation with the primary antibodies as detailed in the table below. Detection was by HRP-conjugated secondary antibodies/chemiluminescence using an ImageQuant LAS 4000 system (GE, Chicago, IL). To permit sequential probing of membranes without stripping, signals were quenched by incubation with prewarmed 30% H20_2 for 20 min ([Sennepin et al., 2009]). Band intensities were measured by ImageQuant software. For pellet vs. supernatant fractions, all were expressed as percent untreated control. For blots in Figure 1E, samples were run on 4–20% SDS PAGE minigels (ThermoFisher) and blotted to PVDF membranes (Immun-Blot PVDF, Bio-Rad) using the Bio-Rad TransBlot Turbo apparatus, and probed as above. The chemiluminescence signal was captured with a Bio-Rad ChemiDoc XRS+ digital imaging system.
(In general: Immunoblotting shows a protein as a band on a membrane.)

For the next assay, the system named is hnRNPA2/B1. Nature of the assay: DPR aggregation assay and western blot, hnRNPA2/B1. The assay is classed as biochemical, human. Conditions: normalized to untreated HEK cells on the same membrane. As to the method: as §1
Another assay deals with Nup98. The experiment in a line: DPR aggregation assay and western blot, Nup98. Conditions: 100 µM 10mer in 2.5 mg/ml HEK lysate, normalized to untreated HEK. The assay is classed as biochemical, human. As to the method:
as §1

The target in assay [3] is T1, importin β-mediated nuclear import of Rango. Nature of the assay: Permeabilized cell nuclear import assay, Rango, HeLa. The assay is classed as cell-based.

T1 sequence (Q14974 whole entry): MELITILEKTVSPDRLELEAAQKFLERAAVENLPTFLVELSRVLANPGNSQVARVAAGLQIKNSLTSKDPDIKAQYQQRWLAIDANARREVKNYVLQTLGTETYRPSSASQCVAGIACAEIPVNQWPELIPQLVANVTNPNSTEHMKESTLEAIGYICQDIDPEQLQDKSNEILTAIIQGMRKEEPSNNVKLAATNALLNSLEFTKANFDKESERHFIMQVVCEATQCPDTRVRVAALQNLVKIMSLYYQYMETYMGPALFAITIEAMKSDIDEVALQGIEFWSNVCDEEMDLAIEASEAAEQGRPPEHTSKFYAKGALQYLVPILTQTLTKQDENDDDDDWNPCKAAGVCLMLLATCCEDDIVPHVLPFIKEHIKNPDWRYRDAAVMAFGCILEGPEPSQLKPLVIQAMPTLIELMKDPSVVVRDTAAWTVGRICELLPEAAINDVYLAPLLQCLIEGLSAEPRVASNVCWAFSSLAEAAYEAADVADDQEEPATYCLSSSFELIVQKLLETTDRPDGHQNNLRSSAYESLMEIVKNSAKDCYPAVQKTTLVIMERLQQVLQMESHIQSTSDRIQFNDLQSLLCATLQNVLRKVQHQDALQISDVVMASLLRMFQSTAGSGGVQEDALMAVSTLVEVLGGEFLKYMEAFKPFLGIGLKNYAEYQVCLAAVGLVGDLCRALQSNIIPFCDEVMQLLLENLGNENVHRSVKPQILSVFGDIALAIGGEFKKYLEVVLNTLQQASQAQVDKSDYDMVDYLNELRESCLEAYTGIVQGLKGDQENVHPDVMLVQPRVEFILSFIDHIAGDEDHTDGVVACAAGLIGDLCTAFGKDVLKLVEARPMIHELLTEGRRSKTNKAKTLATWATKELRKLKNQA

For `N=C(N)NCCC[C@H](NC(=O)[C@@H]1CCCN1C(=O)[C@H](CCCNC(=N)N)NC(=O)[C@@H]1CCCN1C(=O)[C@H](CCCNC(=N)N)NC(=O)[C@@H]1CCCN1C(=O)[C@H](CCCNC(=N)N)NC(=O)[C@@H]1CCCN1C(=O)[C@H](CCCNC(=N)N)NC(=O)[C@@H]1CCCN1C(=O)[C@H](CCCNC(=N)N)NC(=O)[C@@H]1CCCN1C(=O)[C@H](CCCNC(=N)N)NC(=O)[C@@H]1CCCN1C(=O)[C@H](CCCNC(=N)N)NC(=O)[C@@H]1CCCN1C(=O)[C@H](CCCNC(=N)N)NC(=O)[C@@H]1CCCN1C(=O)[C@H](CCCNC(=N)N)NC(=O)[C@@H]1CCCN1)C(=O)O` [PR10] (H-PRPRPRPRPRPRPRPRPRPR-OH; N-terminus and C-terminus assumed), the “Rango import with supernatant only (aggregates removed by centrifugation)” value in assay [1] is on record as “nuclear import remained perturbed”. Besides, in assay [1] (RNA added), the “Rango import with supernatant only plus RNA” value is given as “restored by the addition of RNA”. Besides, in assay [2], the “Binding to bare beads” value is “modest non-specific binding”. The entries for the “RCC1 band density, Pellet” value with RCC1 (Blot 1) and in the assay on RCC1 (Blot 2) were 27.7 % control and 109.0 % control, respectively. Besides, the results for the “RCC1 band density, Supernatant” value in the assay with RCC1 (Blot 1) and with RCC1 (Blot 2) were 103.7 % control and 124.4 % control, respectively. Further, the “hnRNPA2/B1 band density, % control” value with hnRNPA2/B1 (Pellet, Blot 1) is on record as 426.4 % control; in the assay on hnRNPA2/B1 (Pellet, Blot 2), 309.1 % control; in the assay on hnRNPA2/B1 (Supernatant, Blot 1), 53.5 % control; with hnRNPA2/B1 (Supernatant, Blot 2) it was 56.7 % control. Moreover, the “Nup98 band density, Pellet” value in the assay with Nup98 (Blot 1) was 109.9 % control; in the assay with Nup98 (Blot 2), 150.1 % control. Moreover, the “Nup98 band density, Supernatant” value in the assay on Nup98 (Blot 1) came out at 57.2 % control; in the assay on Nup98 (Blot 2), 67.5 % control.
For “GA10: Synthetic 10-mer GA dipeptide repeat with C-terminal lysine and cysteine (GAGAGAGAGAGAGAGAGAGAKC)”, in assay [3], the “NCT inhibition in permeabilized HeLa” value is “did not see NCT inhibition”.
